From patent publication US11852634B2, “Use of AKT phosphorylation as a biomarker for prognosing neurodegenerative diseases and treating same” (Yeda Research and Development Co. Ltd., priority 2011, dated 2023)
Where no end group is shown, it is not given here.

Tested on: healthy mice
Assay: Repeated-dose safety in healthy mice
Format: in vivo
Details: dose four times higher than the effective dose, daily, for 28 days
Excerpt: Accordingly, the peptide of the invention is suitable for chronic use. In addition, the peptide of the invention was shown effective when administered intravenously (IV), intraperitoneally (IP) or in combination of these two modes of delivery.

LPPLPYP [SEQ ID NO: 1, LPPLPYP]
Side effects: did not initiate any detectable side effect
